Data taken from patent publication US12103969B2, “Anti-Siglec antibody, pharmaceutical composition comprising the same, and uses thereof” (Academia Sinica, priority 2018, dated 2024).
Like-named read-outs stand apart in the source and are kept apart here.

Experiments:
[1] = biological target: T1, hHBV and Siglec-3 interaction (Homo sapiens, UniProt P20138); test: Competition assay of hHBV and Siglec-3 interaction by sialoglycan; format: binding
T1 construct: human Siglec-3/-7 extracellular domain (ECD); made in house; host or cells: FreeStyle 293 Expression System (Invitrogen); HBsAg/HBV purified from CHB patients' blood
T1 sequence (P20138 18-259 limits assumed): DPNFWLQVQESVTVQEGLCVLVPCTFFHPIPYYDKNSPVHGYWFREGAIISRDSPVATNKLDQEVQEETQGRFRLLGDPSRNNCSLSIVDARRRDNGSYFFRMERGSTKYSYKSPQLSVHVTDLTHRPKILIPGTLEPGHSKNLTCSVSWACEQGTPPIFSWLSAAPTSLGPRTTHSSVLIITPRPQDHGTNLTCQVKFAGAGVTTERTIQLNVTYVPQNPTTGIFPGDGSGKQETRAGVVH
Method: (§1) Sialidase S and sialidase C were used to remove sialoglycan from HBV or sialoglycans, respectively. Sialidase S releases only α(2-3)-linked Neu5Ac, while Sialidase C release both α(2-3) and α(2-6)-linked Neu5Ac. The sialidase-treated substrates were used for HBV-Siglec-3 binding assay and competition assay.
Siglec ECD.Fc fusion proteins (5 μg) were coated on microtitre plates, followed by addition of HBsAg (100 ng) in the presence various concentrations of following glycans: Neu5Ac(α2-6)-Gal-GlcNAc, Neu5Ac(α2-3)-Gal-GlcNAc, and Gal-GlcNAc at 4° C. for 12 hours with Protein free blocking buffer. The sialidase-treated and un-treated sialyglycans were used for competition assay.

Siglec-3.Fc = biological target: T2, Siglec-3.Fc (Homo sapiens, UniProt P20138); test: Bio-layer interferometry: Siglec-3.Fc and Neu5Ac(α2-6)GalGlcNAc glycans; format: binding
T2 construct: human Siglec-3/-7 extracellular domain (ECD); made in house; host or cells: FreeStyle 293 Expression System (Invitrogen)
T2 sequence (P20138 18-259 limits assumed): as above
Method: (§2) The interaction between human Siglec.Fc fusion protein and HBV was determined by the Bio-layer interferometry. In brief, the biosensor was immobilized with the Siglec.Fc fusion protein, and the binding between the Siglec.Fc and HBV was performed with running buffer (10 mM Tris HCl, 150 mM NaCl, 2 mM CaCl2, 2 mM MgCl2, pH 7.4) at room temperature. The valence between HBV and human Siglec-3 was determined, which correlates the strength of multivalent association with that of monovalent association as shown in the following: • KA, surf=F (S×10^−2)^n−1×(KA, mono)^n, where KA, surf is thereciprocal of KD (HBV and Siglec-3), KA, mono is the reciprocal of KD (Biantennary a2-6 linked sialylglycopeptide and Siglec-3); n is the number of valency number; F is the statistic factor in the system and S is equal to 40(Å), which is estimated according to crystal structure of Siglec-3 published on RCSB protein data bank (Number: 5J0B). Three individual BLI results were used to calculate out the n (number of valency). Generation and Characterization of Anti-Siglec mAbs and Selection of Antagonistic Antibody

hHBV [2] = test: Bio-layer interferometry: immobilized Fc-lectin and hHBV; format: binding, hepatitis B virus
Description: (§3) HBV was purified from blood samples of chronic hepatitis B (CHB) patients and HBV-transgenic mice, respectively. The protocol for HBV was purified by conventional method. HBV viral load was determinate by RT-PCR according to a standard HBV plasmid. HBsAg level was quantified by the HBsAg ELISA kit.
as §1, §2

mHBV = test: Bio-layer interferometry: immobilized Fc-lectin and mHBV; format: binding, hepatitis B virus; settings: BLI, same condition as hHBV
Method: as §3, §2

hHBV [3] = test: Immunoprecipitation of hHBV by Siglec ECD.Fc fusion proteins; format: binding, hepatitis B virus; settings: Western blot with anti-HBs
Method: HBV ([…]) was incubated with recombinant Siglec-3/-7/-9 ECD.Fc fusion proteins, respectively, for 16 hours at 4° C., followed by incubation with Sepharose-conjugated Protein A beads for immunoprecipitation. The samples were fractionated on 12% SDS-PAGE before blotting to PVDF membrane and incubated in blocking buffer (0.05% Tween 20 in TBS containing 5% BSA) at 4° C. overnight. Blots were incubated with […] polyclonal goat-anti-HBs Ab for 1 hour at room temperature, followed by incubation with Streptavidin-HRP (1:10000 dilution) for another 1 hour at room temperature, and were visualized by ECL.

[4] = untreated glycan, various concentrations

## GalGlcNAc
[1]; [4]
  inhibition of Siglec-3-HBV interaction: did not inhibit Siglec-3-HBV interaction

## Neu5Ac(α2-3)GalGlcNAc
[1]; [4]
  inhibition of Siglec-3-HBV interaction: did not inhibit Siglec-3-HBV interaction

## Neu5Ac(α2-6)GalGlcNAc
Siglec-3.Fc; immobilized Siglec-3, cell wraps: value is the mantissa, factor × 10^0 printed in the lines below
  Ka: 5.44 M⁻¹ s⁻¹
Siglec-3.Fc; immobilized Siglec-3, cell wraps: value is the mantissa, factor × 10^−3 printed in the lines below
  Kd: 6.02 s⁻¹
Siglec-3.Fc; recombinant Siglec-3.Fc (dimeric), full value, unit from Table 1, read-out: equilibrium dissociation constant (KD)
  Kd: 1590 µM
[1]; Sialidase C-treated glycan
  inhibition of Siglec-3-HBV interaction: lost its inhibitory effect
[1]; [4]
  inhibition of Siglec-3-HBV interaction: inhibited Siglec-3-HBV interaction in a dose-dependent manner

## Siglec-3: recombinant human Siglec-3 extracellular domain (ECD).Fc fusion protein
hHBV [2]; hHBV Sialidase S treated, cell wraps: value is the mantissa, factor × 10^5 printed in the lines below
  Ka: 7.11 M⁻¹ s⁻¹
hHBV [2]; hHBV Sialidase S treated, cell wraps: value is the mantissa, factor × 10^−4 printed in the lines below
  Kd: 2.73 s⁻¹
hHBV [2]; hHBV Untreat, cell wraps: value is the mantissa, factor × 10^6 printed in the lines below
  Ka: 1.18 M⁻¹ s⁻¹
hHBV [2]; hHBV Untreat, cell wraps: value is the mantissa, factor × 10^−4 printed in the lines below
  Kd: 6.97 s⁻¹
hHBV [2]; hHBV virions, full value, unit from Table 2, read-out: KD
  Kd: 0.000115 µM
hHBV [2]; hHBV, cell wraps: value is the mantissa, factor × 10^6 printed in the line below
  Ka: 3.11 M⁻¹ s⁻¹
hHBV [2]; hHBV, cell wraps: value is the mantissa, factor × 10^−4 printed in the line below
  Kd: 3.58 s⁻¹
hHBV [2]; α2-6 linked Neu5Ac removed from hHBV by sialidase C
  binding between Siglec-3 and hHBV: abolished the binding
mHBV
  binding to mHBV virions: did not bind
hHBV [3]
  pull down of hHBV HBsAg (immunoprecipitation): mainly pulled down glycosylated small HBsAg(h)

## Siglec-9: recombinant Siglec-9 ECD.Fc fusion protein
hHBV [2]; hHBV, BLI, same condition as Siglec-3
  binding to hHBV: did not bind
hHBV [3]
  pull down of hHBV HBsAg (immunoprecipitation): cannot pull down
